Laboratory results reported in patent US20230416329A1, “A PEPTIDE WITH DISULFIDE BONDS AND INHIBITORY ACTIVITY AGAINST SERINE PROTEASES, DERIVED HYBRID PEPTIDES THEREOF, AND USES THEREOF” (INSTITUTE OF MATERIA MEDICA , CHINESE ACADEMY OF MEDICAL …, priority 2020, published 2023).
pIC50: −log10 of the molar value. Bridge positions count the residues as written; N and C are the ends. Square brackets hold non-standard residues; d marks the D form. Peptide text beside a SMILES is read from it. hCys = N[C@@H](CCS)C(=O)O

Target: T1, bovine trypsin (Bos taurus, UniProt P00760)
T1 sequence (P00760 24-246): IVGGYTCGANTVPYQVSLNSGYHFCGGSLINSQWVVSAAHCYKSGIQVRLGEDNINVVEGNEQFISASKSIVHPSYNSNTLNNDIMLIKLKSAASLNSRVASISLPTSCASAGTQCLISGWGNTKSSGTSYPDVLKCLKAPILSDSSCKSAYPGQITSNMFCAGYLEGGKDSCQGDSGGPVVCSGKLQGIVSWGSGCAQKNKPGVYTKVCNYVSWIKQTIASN
Experiment: Trypsin inhibitory activity of peptides (BApNA hydrolysis, OD405; IC50, Ki, residual activity)
Type: biochemical
Settings: not given
In short: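 Trypsin (50 nM final) preincubated with peptides at 37 °C in 50 mM Tris-HCl pH 7.8, 20 mM CaCl2; BApNA added (1.22 mM final), 260 min at 37 °C, then OD405 read. Residual activity from enzyme-only and substrate-only controls; IC50 fitted and converted to Ki via Ki=IC50/(1+S/Km), Km measured separately for BApNA.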

Row | SMILES | inhibitory activity against trypsin (in words)
1 | CC[C@H](C)[C@@H]1NC(=O)[C@@H]2CCCN2C(=O)[C@@H]2CCCN2C(=O)[C@H]([C@@H](C)CC)NC(=O)[C@H](CO)NC(=O)[C@H](CCCCN)NC(=O)[C@H]([C@@H](C)O)NC(=O)[C@H](C)NC(=O)[C@H](CCCNC(=N)N)NC(=O)CNC(=O)[C@@H](N)CCSSCC[C@@H](C(=O)O)NC(=O)[C@H](Cc2ccccc2)NC(=O)[C@H](C)NC1=O [BT29] (H-[hCys]GRATKSIPPIAF[hCys]-OH; disulfide 1-14; N-terminus assumed) | still maintained good inhibitory activity against trypsin
2 | CC[C@H](C)[C@@H]1NC(=O)[C@@H]2CCCN2C(=O)[C@@H]2CCCN2C(=O)[C@H]([C@@H](C)CC)NC(=O)[C@H](CO)NC(=O)[C@H](CCCCN)NC(=O)[C@H]([C@@H](C)O)NC(=O)[C@H](C)NC(=O)[C@H](CCCNC(=N)N)NC(=O)CNC(=O)[C@@H](N)CSSC[C@@H](C(=O)O)NC(=O)CNC(=O)[C@H](Cc2ccccc2)NC(=O)[C@H](C)NC1=O [BT32] (H-CGRATKSIPPIAFGC-OH; disulfide 1-15; N-terminus and C-terminus assumed) | still maintained good inhibitory activity against trypsin
3 | CC[C@H](C)[C@@H]1NC(=O)[C@@H]2CCCN2C(=O)[C@@H]2CCCN2C(=O)[C@H]([C@@H](C)CC)NC(=O)[C@H](CO)NC(=O)[C@H](CCCCN)NC(=O)[C@H]([C@@H](C)O)NC(=O)[C@H](C)NC(=O)[C@H](CCCNC(=N)N)NC(=O)CNC(=O)[C@@H](N)CCSSCC[C@@H](C(=O)O)NC(=O)CNC(=O)[C@H](Cc2ccccc2)NC(=O)[C@H](C)NC1=O [BT33] (H-[hCys]GRATKSIPPIAFG[hCys]-OH; disulfide 1-15; N-terminus assumed) | still maintained good inhibitory activity against trypsin

Same assay, conditions: trypsin 50 nM, BApNA 1.22 mM; read-out: IC50

Row | SMILES | pIC50
4 | CC[C@H](C)[C@@H]1NC(=O)[C@H](CO)NC(=O)[C@H](CCCCN)NC(=O)[C@H]([C@@H](C)O)NC(=O)[C@H](Cc2c[nH]c3ccccc23)NC(=O)[C@H](CCCNC(=N)N)NC(=O)CNC(=O)[C@@H](N)CSSC[C@@H](C(=O)O)NC(=O)[C@H](Cc2ccccc2)NC(=O)[C@H](C)NC(=O)[C@@H]2CCCN2C(=O)[C@@H]2CCCN2C1=O [BT39] (H-CGRWTKSIPPAFC-OH; disulfide 1-13 (inferred); N-terminus and C-terminus assumed) | < 4.30
5 | CC[C@H](C)[C@@H]1NC(=O)[C@H](CCCCN)NC(=O)[C@@H]2CCCN2C(=O)[C@H](C)NC(=O)[C@H](CCCNC(=N)N)NC(=O)CNC(=O)[C@@H](N)CSSC[C@@H](C(=O)N[C@@H](Cc2ccccc2)C(=O)O)NC(=O)[C@H](CCCCN)NC(=O)[C@H](CCCCN)NC(=O)[C@H](CC(C)C)NC1=O [BT42] (H-CGRAPKILKKCF-OH; disulfide 1-11) | < 4.30
6 | CC[C@H](C)[C@@H]1NC(=O)[C@H](CCCCN)NC(=O)[C@@H]2CCCN2C(=O)[C@H](C)NC(=O)[C@H](CCCNC(=N)N)NC(=O)CNC(=O)[C@@H](N)CSSC[C@@H](C(=O)N[C@@H](Cc2ccccc2)C(=O)O)NC(=O)[C@H](CCCNC(=N)N)NC(=O)[C@H](CCC(N)=O)NC(=O)[C@H](CC(C)C)NC1=O [BT44] (H-CGRAPKILQRCF-OH; disulfide 1-11 (inferred); N-terminus and C-terminus assumed) | < 4.30

Further lines, results first:

Row | pIC50 | SMILES
7 | < 4.30 | CC[C@H](C)[C@@H]1NC(=O)[C@@H]2CCCN2C(=O)[C@@H]2CCCN2C(=O)[C@H]([C@@H](C)CC)NC(=O)[C@H](CO)NC(=O)[C@H](CCCCN)NC(=O)[C@H]([C@@H](C)O)NC(=O)[C@H](C)NC(=O)[C@H](CCCNC(=N)N)NC(=O)CNC(=O)[C@@H](N)CSSC[C@@H](C(=O)O)NC(=O)[C@H](Cc2ccccc2)NC1=O [BT30] (H-CGRATKSIPPIFC-OH; disulfide 1-13 (inferred); N-terminus and C-terminus assumed)
8 | < 4.30 | CC[C@H](C)[C@@H]1NC(=O)[C@H](CO)NC(=O)[C@H](CCCCN)NC(=O)[C@H]([C@@H](C)O)NC(=O)[C@H](C)NC(=O)[C@H](CCCNC(=N)N)NC(=O)CNC(=O)[C@@H](N)CSSC[C@@H](C(=O)O)NC(=O)[C@H](Cc2ccccc2)NC(=O)[C@H](C)NC(=O)[C@@H]2CCCN2C(=O)[C@@H]2CCCN2C1=O [BT31] (H-CGRATKSIPPAFC-OH; disulfide 1-13 (inferred); N-terminus and C-terminus assumed)
9 | < 4.30 | CC[C@H](C)[C@@H]1NC(=O)[C@H](CO)NC(=O)[C@H](CCCCN)NC(=O)[C@H]([C@@H](C)O)NC(=O)[C@H](C)NC(=O)[C@H](CCCNC(=N)N)NC(=O)CNC(=O)[C@@H](N)CSSC[C@@H](C(=O)O)NC(=O)[C@H](CCCNC(=N)N)NC(=O)[C@H](C)NC(=O)[C@H](CCC(N)=O)NC(=O)[C@@H]2CCCN2C(=O)[C@@H]2CCCN2C1=O [BT34] (H-CGRATKSIPPQARC-OH; disulfide 1-14)
10 | < 4.30 | CC[C@H](C)[C@@H]1NC(=O)[C@H](CO)NC(=O)[C@H](CCCCN)NC(=O)[C@H]([C@@H](C)O)NC(=O)[C@H](Cc2c[nH]c3ccccc23)NC(=O)CNC(=O)[C@@H](N)CSSC[C@@H](C(=O)O)NC(=O)[C@@H]2CCCN2C(=O)[C@H](CCCCN)NC(=O)[C@@H]2CCCN2C(=O)[C@@H]2CCCN2C1=O [BT37] (H-CGWTKSIPPKPC-OH; disulfide 1-12)
11 | < 4.30 | CC[C@H](C)[C@@H]1NC(=O)[C@H](CO)NC(=O)[C@H](CCCCN)NC(=O)[C@H]([C@@H](C)O)NC(=O)[C@H](Cc2c[nH]c3ccccc23)NC(=O)[C@H](CCCNC(=N)N)NC(=O)CNC(=O)[C@@H](N)CSSC[C@@H](C(=O)O)NC(=O)[C@@H]2CCCN2C(=O)[C@H](CCCCN)NC(=O)[C@@H]2CCCN2C(=O)[C@@H]2CCCN2C1=O [BT38] (H-CGRWTKSIPPKPC-OH; disulfide 1-13 (inferred); N-terminus and C-terminus assumed)
12 | < 4.30 | CC[C@H](C)[C@@H]1NC(=O)[C@@H]2CCCN2C(=O)[C@@H]2CCCN2C(=O)[C@H]([C@@H](C)CC)NC(=O)[C@H](CO)NC(=O)[C@H](CCCCN)NC(=O)[C@H]([C@@H](C)O)NC(=O)[C@H](Cc2c[nH]c3ccccc23)NC(=O)[C@H](CCCNC(=N)N)NC(=O)CNC(=O)[C@@H](N)CSSC[C@@H](C(=O)O)NC(=O)[C@H](Cc2ccccc2)NC1=O [BT40] (H-CGRWTKSIPPIFC-OH; disulfide 1-13 (inferred); N-terminus and C-terminus assumed)
13 | < 4.30 | CC[C@H](C)[C@@H]1NC(=O)[C@H](CCCCN)NC(=O)[C@@H]2CCCN2C(=O)[C@@H](NC(=O)[C@H](CCCNC(=N)N)NC(=O)CN)CSSC[C@@H](C(=O)N[C@@H](Cc2ccccc2)C(=O)O)NC(=O)[C@H](CCCCN)NC(=O)[C@H](CCCCN)NC(=O)[C@H](CC(C)C)NC1=O [BT41] (H-GRCPKILKKCF-OH; disulfide 3-10)
14 | < 4.30 | CC[C@H](C)[C@@H]1NC(=O)[C@H](CCCCN)NC(=O)[C@@H]2CCCN2C(=O)[C@@H](NC(=O)[C@H](CCCNC(=N)N)NC(=O)CN)CSSC[C@@H](C(=O)N[C@@H](Cc2ccccc2)C(=O)O)NC(=O)[C@H](CCCNC(=N)N)NC(=O)[C@H](CCC(N)=O)NC(=O)[C@H](CC(C)C)NC1=O [BT43] (H-GRCPKILQRCF-OH; disulfide 3-10)
